Laboratory results published in paper PMC6018633, “Structural bases of TRP channel TRPV6 allosteric modulation by 2-APB” (Nature Communications, 2018).
Values belong to the molecule of their own block, whether it stands above or below them.

What was measured:
TRPV5 = settings: cited from earlier work
[1] = biological target: TRPV6* (rat TRPV6 residues 1-668, I62Y, L92N, M96Q) (Rattus norvegicus, UniProt Q9R186, I102Y/L132N/M136Q); assay: cell-based
Experimental: (§1) Arrows indicate the times when 2-APB and Ca^2+ were added. […] The changes in the fluorescence intensity ratio at 340 and 380 nm (F340/F380) evoked by addition of 2 mM Ca^2+ after preincubation with various concentrations of 2-APB were normalized to the maximal change in F340/F380 after addition of 2 mM Ca^2+ in the absence of 2-APB. […] Error bars represent SEMs
(§2) For crystallization experiments, we used the previously developed construct TRPV6*[39], which includes wild-type rat TRPV6 (rTRPV6) residues 1–668 and three point mutations (I62Y, L92N, and M96Q), and the TRPV6*-Y466A construct, which contains an additional point mutation, Y466A. For calcium uptake measurement experiments, we used TRPV6*, rTRPV6, and rTRPV6 with individual alanine substitutions (rTRPV6-E402A, rTRPV6-H425A, rTRPV6-Y466A, rTRPV6-R469A, and rTRPV6-M602A), wild-type human TRPV6 (hTRPV6), hTRPV6 with a single tyrosine-to-alanine substitution (hTRPV6-Y467A), wild-type rat TRPV1 (rTRPV1), rat TRPV2 (rTRPV2) and mouse TRPV3 (mTRPV3), and their mutant versions with single tyrosine-to-alanine substitutions (rTRPV1-Y554A, rTRPV2-Y514A, and mTRPV3-Y564A, respectively). For cryo-EM experiments, we used hTRPV6 and hTRPV6-Y467A constructs.
(§3) The intracellular Ca^2+ measurements from HEK 293 cells expressing different TRP channel constructs (see above) were performed similarly to those described previously[39],[49]. Briefly, to measure 2-APB-dependent inhibition of TRPV6 activity, cells expressing TRPV6 constructs were suspended in Ca^2+-free buffer and transferred to a quartz cuvette. After an initial 100-s equilibration period, 2-APB was added to the cuvette and incubated for another 100 s, before 2 mM CaCl2 was added. For the TRPV6-E402A mutant, 5 mM instead of 2 mM CaCl2 was added. For intracellular Ca^2+ measurements from HEK 293 cells expressing TRPV1, TRPV2, or TRPV3, the experiments were carried out with prewarmed modified HBS (118 mM NaCl, 4.8 mM KCl, 1 mM MgCl2, 2.5 mM CaCl2, 5 mM D-glucose, 10 mM HEPES pH 7.4). Briefly, HEK 293 cells expressing TRPV1/2/3 channels were centrifuged at 600×g, resuspended in modified HBS containing 5 μg/mL of Fura 2-AM (Life Technologies), and incubated at 37 °C for 45 min. Next, the cells were centrifuged for 5 min at 600×g, resuspended in prewarmed, modified HBS, and incubated again at 37 °C for 20–30 min in the dark. The cells were subsequently pelleted and washed twice, and then resuspended in modified HBS for fluorescence measurements. Intracellular Ca^2+ was measured by taking the ratio of fluorescence (510 nm) emitted from Fura 2-AM after excitation at either a wavelength of 340 nm (excites Ca^2+ bound Fura 2-AM) or 380 nm (excites Ca^2+ free Fura 2-AM). The excitation wavelength was switched at 1-s intervals. ΔF340/F380 was measured as the difference between baseline F340/F380 ratio recorded before the addition of Ca^2+ (for TRPV6 experiments) or 2-APB (for TRPV1-3) and the maximum F340/F380 after addition of either Ca^2+ or 2-APB. Data were normalized to ΔF340/F380 in the absence of 2-APB (for TRPV6 constructs) or the ΔF340/F380 value at saturating concentrations of 2-APB (for TRPV1/2/3).

wild-type hTRPV6 = wild-type hTRPV6 (Homo sapiens, UniProt Q9H1D0); assay: cell-based
Experimental: as §1, §2, §3

hTRPV6-Y467A = hTRPV6-Y467A (Homo sapiens, UniProt Q9H1D0, Y507A); assay: cell-based
Experimental: as §1, §2, §3

wild-type rTRPV6 = wild-type rTRPV6 (Rattus norvegicus, UniProt Q9R186); assay: cell-based
Experimental: as §1, §2, §3

TRPV4 = settings: cited from earlier work
rat TRPV1 (rTRPV1-Y554A) = settings: leftward shift of 2-APB concentration dependence; HEK 293 cells, Fura-2
From the text: (§4) Fig. 5 Probing of the 2-APB binding site in different TRPV channels. a–c Dose–response curves for 2-APB activation of wild-type (black) and mutant (red) rat TRPV1 (a), rat TRPV2 (b), and mouse TRPV3 (c) channels with alanine substitution of the conserved tyrosine in the presumed 2-APB binding pocket. Each data point represents an average of n = 3–7 measurements with error bars representing SEMs. d, e Close-up view of superposition of the 2-APB binding pocket in the TRPV6*2-APB crystal structure (cyan) and the corresponding regions of rat TRPV1 (d) PDB ID: 5IRX, orange and rabbit TRPV2 (e) PDB ID: 5AN8, green. Phosphatidylcholine (PC), cholesterol and 2-APB molecules as well as the side chain of the conserved tyrosine are shown as sticks
(§5) For crystallization experiments, we used the previously developed construct TRPV6*[39], which includes wild-type rat TRPV6 (rTRPV6) residues 1–668 and three point mutations (I62Y, L92N, and M96Q), and the TRPV6*-Y466A construct, which contains an additional point mutation, Y466A. […]
(§6) The intracellular Ca^2+ measurements from HEK 293 cells expressing different TRP channel constructs (see above) were performed similarly to those described previously[39],[49]. […] The cells were subsequently pelleted and washed twice, and then resuspended in modified HBS for fluorescence measurements. Intracellular Ca^2+ was measured by taking the ratio of fluorescence (510 nm) emitted from Fura 2-AM after excitation at either a wavelength of 340 nm (excites Ca^2+ bound Fura 2-AM) or 380 nm (excites Ca^2+ free Fura 2-AM). The excitation wavelength was switched at 1-s intervals. ΔF340/F380 was measured as the difference between baseline F340/F380 ratio recorded before the addition of Ca^2+ (for TRPV6 experiments) or 2-APB (for TRPV1-3) and the maximum F340/F380 after addition of either Ca^2+ or 2-APB. […] All Fura2-AM-based fluorescence measurements were conducted using a QuantaMaster^TM 40 (Photon Technology International) spectrofluorometer at room temperature in a quartz cuvette under constant stirring.

[2] = test system: mouse TRPV3 (mTRPV3-Y564A); settings: leftward shift of 2-APB concentration dependence; HEK 293 cells, Fura-2
From the text: as §4, §5, §6

rat TRPV2 (rTRPV2-Y514A) = settings: leftward shift of 2-APB concentration dependence; HEK 293 cells, Fura-2
From the text: as §4, §5, §6

rTRPV6-Y466A = rTRPV6-Y466A (Rattus norvegicus, UniProt Q9R186, Y506A); assay: cell-based
From the text: (§7) To further characterize the 2-APB binding site and to examine the contribution of individual residues to 2-APB inhibition, we introduced alanine substitutions at residues in the 2-APB binding pocket (E402, H425, Y466, R469, and M602) and tested 2-APB inhibition.
as §2
as §3, with “TRPV1/2/3). All Fura2-AM-based fluorescence measurements were conducted using a QuantaMaster^TM 40 (Photon Technology International) spectrofluorometer at room temperature in a quartz cuvette under constant stirring.” for “TRPV1/2/3).”

rTRPV6-M602A = rTRPV6-M602A (Rattus norvegicus, UniProt Q9R186, M642A); assay: cell-based
From the text: as §7, §2
as §3, with “TRPV1/2/3). All Fura2-AM-based fluorescence measurements were conducted using a QuantaMaster^TM 40 (Photon Technology International) spectrofluorometer at room temperature in a quartz cuvette under constant stirring.” for “TRPV1/2/3).”

rTRPV6-E402A = rTRPV6-E402A (Rattus norvegicus, UniProt Q9R186, E442A); assay: cell-based
From the text: as §7, §2
as §3, with “TRPV1/2/3). All Fura2-AM-based fluorescence measurements were conducted using a QuantaMaster^TM 40 (Photon Technology International) spectrofluorometer at room temperature in a quartz cuvette under constant stirring.” for “TRPV1/2/3).”

rTRPV6-H425A = rTRPV6-H425A (Rattus norvegicus, UniProt Q9R186, H465A); assay: cell-based
From the text: as §7, §2
as §3, with “TRPV1/2/3). All Fura2-AM-based fluorescence measurements were conducted using a QuantaMaster^TM 40 (Photon Technology International) spectrofluorometer at room temperature in a quartz cuvette under constant stirring.” for “TRPV1/2/3).”

rTRPV6-R469A = rTRPV6-R469A (Rattus norvegicus, UniProt Q9R186, R509A); assay: cell-based
From the text: as §7, §2
as §3, with “TRPV1/2/3). All Fura2-AM-based fluorescence measurements were conducted using a QuantaMaster^TM 40 (Photon Technology International) spectrofluorometer at room temperature in a quartz cuvette under constant stirring.” for “TRPV1/2/3).”

[3] = biological target: TRPV6* (rat TRPV6 residues 1-668 with I62Y, L92N and M96Q) (rat) (UniProt Q9R186); assay: crystal structure; TRPV6* constructs purified in DDM, without or with 1 mM 2-APB or 2-APB-Br; hanging drop, 20 °C, 20-24% PEG 350 MME, 50 mM NaCl, 50 mM Tris-HCl pH 8.0-8.5
[4] = biological target: the molecule itself; assay: cryo-EM structure; hTRPV6-Y467A in amphipols, 0.35 mg/ml, without or with 1 mM 2-APB; C4 symmetry imposed
[5] = HEK 293 cells, Fura-2, logistic fit, mean ± SEM
[6] = HEK 293 cells, Fura-2, logistic fit

Chain of wild-type rTRPV6 (Q9R186 41-767 limits assumed): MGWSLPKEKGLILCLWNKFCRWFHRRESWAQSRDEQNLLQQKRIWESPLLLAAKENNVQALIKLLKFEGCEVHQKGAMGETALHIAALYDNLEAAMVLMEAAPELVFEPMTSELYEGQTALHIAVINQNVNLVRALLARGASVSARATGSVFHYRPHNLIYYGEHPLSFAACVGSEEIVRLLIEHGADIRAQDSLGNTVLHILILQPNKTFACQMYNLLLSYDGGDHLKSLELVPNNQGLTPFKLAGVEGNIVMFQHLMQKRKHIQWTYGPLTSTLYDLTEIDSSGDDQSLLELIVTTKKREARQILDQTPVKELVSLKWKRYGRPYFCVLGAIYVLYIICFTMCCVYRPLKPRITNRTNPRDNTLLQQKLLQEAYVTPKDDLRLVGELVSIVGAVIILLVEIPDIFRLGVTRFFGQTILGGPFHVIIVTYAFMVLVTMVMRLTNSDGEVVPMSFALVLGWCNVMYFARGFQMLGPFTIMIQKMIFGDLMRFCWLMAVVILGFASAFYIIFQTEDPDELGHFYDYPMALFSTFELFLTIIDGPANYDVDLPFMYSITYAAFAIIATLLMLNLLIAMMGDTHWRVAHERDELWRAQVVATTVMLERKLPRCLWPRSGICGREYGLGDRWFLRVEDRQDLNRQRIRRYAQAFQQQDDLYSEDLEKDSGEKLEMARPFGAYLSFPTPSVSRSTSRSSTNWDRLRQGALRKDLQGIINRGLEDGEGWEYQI
Chain of wild-type hTRPV6 (Q9H1D0 41-765 limits assumed): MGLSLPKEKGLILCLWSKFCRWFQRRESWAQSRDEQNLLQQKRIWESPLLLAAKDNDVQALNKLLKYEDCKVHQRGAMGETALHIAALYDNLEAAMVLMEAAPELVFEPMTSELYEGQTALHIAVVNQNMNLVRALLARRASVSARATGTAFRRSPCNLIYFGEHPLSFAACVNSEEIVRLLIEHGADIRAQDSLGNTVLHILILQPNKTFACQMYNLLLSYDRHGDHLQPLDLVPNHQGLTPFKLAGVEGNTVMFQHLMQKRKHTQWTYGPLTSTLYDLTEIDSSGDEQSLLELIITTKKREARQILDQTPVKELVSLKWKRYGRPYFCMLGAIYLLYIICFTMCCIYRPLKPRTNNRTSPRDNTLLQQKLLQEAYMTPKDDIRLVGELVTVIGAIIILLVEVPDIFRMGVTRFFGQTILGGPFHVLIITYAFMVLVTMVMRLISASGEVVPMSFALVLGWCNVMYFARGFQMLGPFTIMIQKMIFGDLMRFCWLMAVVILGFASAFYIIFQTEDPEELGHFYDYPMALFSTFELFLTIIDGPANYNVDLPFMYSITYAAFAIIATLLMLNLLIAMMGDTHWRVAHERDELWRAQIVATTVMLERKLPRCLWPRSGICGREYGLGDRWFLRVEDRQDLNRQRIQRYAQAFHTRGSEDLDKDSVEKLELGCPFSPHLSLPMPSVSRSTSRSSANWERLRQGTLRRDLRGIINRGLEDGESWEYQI
Chain of TRPV6* (rat TRPV6 residues 1-668, I62Y, L92N, M96Q) (Q9R186 1-668 I102Y/L132N/M136Q): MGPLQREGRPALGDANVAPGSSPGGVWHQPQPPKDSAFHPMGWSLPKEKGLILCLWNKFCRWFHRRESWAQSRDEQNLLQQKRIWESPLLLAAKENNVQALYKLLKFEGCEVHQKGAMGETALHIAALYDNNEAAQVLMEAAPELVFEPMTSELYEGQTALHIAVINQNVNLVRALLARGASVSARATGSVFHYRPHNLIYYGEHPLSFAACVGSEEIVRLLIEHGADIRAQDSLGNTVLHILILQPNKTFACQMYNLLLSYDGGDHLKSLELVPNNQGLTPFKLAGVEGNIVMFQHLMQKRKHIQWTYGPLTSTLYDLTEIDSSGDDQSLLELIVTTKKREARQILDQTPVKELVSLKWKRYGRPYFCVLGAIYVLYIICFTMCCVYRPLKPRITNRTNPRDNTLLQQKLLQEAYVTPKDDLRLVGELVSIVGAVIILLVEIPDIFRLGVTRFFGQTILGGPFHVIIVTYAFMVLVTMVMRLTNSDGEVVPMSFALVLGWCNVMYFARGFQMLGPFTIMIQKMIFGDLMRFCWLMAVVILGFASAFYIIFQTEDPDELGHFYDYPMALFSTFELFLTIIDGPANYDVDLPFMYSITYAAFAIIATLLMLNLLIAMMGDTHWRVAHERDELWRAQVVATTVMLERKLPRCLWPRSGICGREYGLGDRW
Chain of rTRPV6-R469A (Q9R186 41-767 R509A limits assumed): as the sequence (Q9R186 41-767 limits assumed) above, with R469A counted along it
Chain of rTRPV6-Y466A (Q9R186 41-767 Y506A limits assumed): as the sequence (Q9R186 41-767 limits assumed) above, with Y466A counted along it
Chain of rTRPV6-E402A (Q9R186 41-767 E442A limits assumed): as the sequence (Q9R186 41-767 limits assumed) above, with E402A counted along it
Chain of rTRPV6-M602A (Q9R186 41-767 M642A limits assumed): as the sequence (Q9R186 41-767 limits assumed) above, with M602A counted along it
Chain of rTRPV6-H425A (Q9R186 41-767 H465A limits assumed): as the sequence (Q9R186 41-767 limits assumed) above, with H425A counted along it

IC50 [1]: 156 ± 20 µM
maximal inhibition of Ca2+ uptake, TRPV6* [1, 5]: 83.5 ± 2.9%
IC50 (wild-type hTRPV6): 274 ± 27 µM
maximal inhibition of Ca2+ uptake, wild-type hTRPV6 (wild-type hTRPV6; [6]): 72.6 ± 2.7%
IC50 (hTRPV6-Y467A): 60 ± 13 µM
maximal inhibition of Ca2+ uptake, hTRPV6-Y467A (hTRPV6-Y467A; [6]): 92.4 ± 8.1%
increased potency of 2-APB inhibition, hTRPV6-Y467A compared to hTRPV6 (hTRPV6-Y467A; ratio of IC50 values): 4.5 fold
IC50 (wild-type rTRPV6): 184 ± 8 µM
maximal inhibition of Ca2+ uptake, wild-type rTRPV6 (wild-type rTRPV6; [5]): 93.6 ± 1.1%
IC50 (rTRPV6-Y466A): 3.62 ± 0.54 µM
IC50 (rTRPV6-M602A): 98 ± 19 µM
IC50 (rTRPV6-E402A): 7.5 ± 2.1 µM
IC50 (rTRPV6-H425A): 165 ± 32 µM
IC50 (rTRPV6-R469A): 23.4 ± 1.6 µM
Molecule: NCCOB(c1ccccc1)c1ccccc1 [2-APB, 2-aminoethoxydiphenyl borate]
2-APB modulation of TRPV5 (TRPV5): lack of measurable 2-APB modulation
2-APB modulation of TRPV4 (TRPV4): lack of measurable 2-APB modulation
increase in 2-APB agonist potency, TRPV1 tyrosine-to-alanine mutant vs wild-type (rat TRPV1 (rTRPV1-Y554A)): 3 fold
increase in 2-APB agonist potency, TRPV3 tyrosine-to-alanine mutant vs wild-type [2]: 20 fold
increase in 2-APB agonist potency, TRPV2 tyrosine-to-alanine mutant vs wild-type (rat TRPV2 (rTRPV2-Y514A)): 40 fold

stoichiometry N [3]: 4
Molecule: TRPV6* (rat TRPV6 residues 1-668 with I62Y, L92N and M96Q) (from UniProt Q9R186 1-668) (domain or fragment)

B1: human TRPV6 with a single tyrosine-to-alanine substitution (hTRPV6-Y467A) (natural protein)
chain: MGLSLPKEKGLILCLWSKFCRWFQRRESWAQSRDEQNLLQQKRIWESPLLLAAKDNDVQALNKLLKYEDCKVHQRGAMGETALHIAALYDNLEAAMVLMEAAPELVFEPMTSELYEGQTALHIAVVNQNMNLVRALLARRASVSARATGTAFRRSPCNLIYFGEHPLSFAACVNSEEIVRLLIEHGADIRAQDSLGNTVLHILILQPNKTFACQMYNLLLSYDRHGDHLQPLDLVPNHQGLTPFKLAGVEGNTVMFQHLMQKRKHTQWTYGPLTSTLYDLTEIDSSGDEQSLLELIITTKKREARQILDQTPVKELVSLKWKRYGRPYFCMLGAIYLLYIICFTMCCIYRPLKPRTNNRTSPRDNTLLQQKLLQEAYMTPKDDIRLVGELVTVIGAIIILLVEVPDIFRMGVTRFFGQTILGGPFHVLIITYAFMVLVTMVMRLISASGEVVPMSFALVLGWCNVMAFARGFQMLGPFTIMIQKMIFGDLMRFCWLMAVVILGFASAFYIIFQTEDPEELGHFYDYPMALFSTFELFLTIIDGPANYNVDLPFMYSITYAAFAIIATLLMLNLLIAMMGDTHWRVAHERDELWRAQIVATTVMLERKLPRCLWPRSGICGREYGLGDRWFLRVEDRQDLNRQRIQRYAQAFHTRGSEDLDKDSVEKLELGCPFSPHLSLPMPSVSRSTSRSSANWERLRQGTLRRDLRGIINRGLEDGESWEYQILVPRGSAAAWSHPQFEK
stoichiometry N [4]: 4
